Measurements published in US20120083471A1, “Novel Compounds, Pharmaceutical Compositions Containing Same, Methods of Use for Same, and Methods for Preparing Same” (priority 2008, published 2012).
Entries after “also recorded” stand apart in the source; their conditions may differ.

System: hypothalamic neuropeptide expression
Assay: Real-time RT-PCR of hypothalamic neuropeptides in lean mice after single dose
Type: in vivo, mouse
Settings: single 20 mg/kg
Experimental: For acute studies, 6 DIO or lean mice were treated with a single dose of FSG67 (20 mg/kg, i.p.) approximately 3 hrs past lights-on. Animal weights and food consumption were measured 18 h after treatment. Following euthanization, the hypothalmuses were harvested to measure orexigenic and anorexigenic neuropeptide gene expression. In the chronic studies, DIO mice, 4-10 animals per group, were treated daily with FSG67 (5 mg/kg, i.p.) or with RMPI vehicle for the days indicated. Body weight and food intake were measured daily. In one study, a cohort of mice was pair-fed with amounts consumed by the FSG67-treated animals and mice were monitored with indirect calorimetry (Oxymax Equal Flow System®, Columbus Instruments, Columbus, Ohio). Measurements of VO2 (ml/kg/hr) and VCO2 (ml/kg/hr) were performed and recorded every 15 min. The respiratory exchange ratio (RER) was calculated by Oxymax software, version 5.9, and is defined as ratio of VCO2 to VO2 33. After completion of the treatment course, animals were euthanized by CO2 inhalation 4 hrs following the final dose of FSG67. Tissues were harvested immediately for RNA extraction; serum was collected and analyzed for glucose, cholesterol, and triglyceride measurements (Bioanalytics, Gaithersburg, Md.). Fresh liver tissue was snap frozen in liquid N2, sectioned, and stained with hematoxylin and Oil Red O to visualize triglyceride droplets.
Real-time RT-PCR. Hypothalamus, liver, and WAT of DIO and lean mice were harvested and immediately frozen in liquid nitrogen. Total RNA was isolated and real-time quantitative RT-PCR was performed as previously described (13). Gene-specific primer pairs were designed using Primer3 software (http://www-genome.wi.mit.edu/cgi-bin/primer/primer3_www.cgi/). […]
Acute and chronic FSG67 treatment altered hypothalamic neuropeptide expression. Hypothalamic peptide expression was measured in the lean and DIO mice treated with a single dose of FSG67 (see FIG. 11) and in the chronically treated DIO mice (see FIG. 12) to further asses the mechanism responsible for reduced food intake. […]

CCCCCCCCCS(=O)(=O)Nc1ccccc1C(=O)O [Compound 15g, 2-(Nonylsulfonamido)benzoic acid]
hypothalamic NPY expression (compared to fasted mice): significantly reduced
hypothalamic AGRP expression (compared to vehicle control and fasted mice, listed as FSG67, 20 mg/kg): substantially diminished
hypothalamic POMC and CART expression (listed as FSG67, 20 mg/kg): not affected; also recorded: unaffected
